{
  "source": "patent US10806729B2",
  "about": "“Quinoline derivatives for use in the treatment or prevention of viral infection” (ABIVAX, priority 2015, dated 2020)",
  "key": {"HIV-1 strain Ada-MR5": {"tested_on": "HIV-1 strain Ada-MR5", "assay": "HIV-1 p24 production in infected activated PBMCs (ELISA)", "type": "cell-based", "conditions": "stimulated PBMCs, supernatant 6 days post-infection, increasing concentrations", "text": "FIG. 1. Potency of quinoline derivatives to inhibit HIV-1 production in PBMC- and macrophages-infected cells. […] Each point represents 6 donors. B) HIV-1 strain YU2 was used to infect triplicate of monocyte derived-macrophages from different donors in the absence or presence of increasing concentrations of Compound 22. […] Each point represents 8 donors.\nBuffy coats from HIV-negative individuals were obtained from the local blood donation center in Zurich, Switzerland (http://www.blutspendezurich.ch/) and Centre de transfusion sanguine Montpellier. Human peripheral blood mononuclear cells (PBMCs) were isolated by Ficoll (Axis-Shield PoC AS) gradient centrifugation. The cells have then been cultivated at 37° C., 5% CO2 to a density of 1×10^6 cells/mL in RPMI Glutamax medium (Life Technologies Ref 61870-010) supplemented with 10% fetal calf serum (FCS) (Thermo Fischer Ref SV30160.03), 1000 U/mL of IL2 (Peprotech Ref 200-02) and 5 μg/mL of PHA (Roche Ref 1249738) for activation. Three days later, cells have been pooled and resuspended to a density of 1×10^6 cells/mL in RPMI Glutamax medium supplemented with 10% fetal calf serum (FCS) 1000 U/mL of IL-2 for infection. HIV-1 infection has been performed with 10 μg of Ada-M R5 HIV strain per mL of cells for 4 hours. […]\nCells were treated with 0.01 μM up to 30 μM and p24 antigen levels were monitored in culture supernatant over a 12 day period. […]"}, "HIV-1 strain YU2": {"tested_on": "HIV-1 strain YU2", "assay": "HIV-1 p24 production in infected monocyte derived macrophages (ELISA)", "type": "cell-based", "conditions": "Human immunodeficiency virus 1, Primary macrophage; primary macrophages infected with Yu-2, at 0.1 μM; read-out: inhibition levels of virus replication (p24)", "text": "FIG. 1. Potency of quinoline derivatives to inhibit HIV-1 production in PBMC- and macrophages-infected cells. […] Each point represents 6 donors. B) HIV-1 strain YU2 was used to infect triplicate of monocyte derived-macrophages from different donors in the absence or presence of increasing concentrations of Compound 22. […] Each point represents 8 donors. To generate monocyte derived macrophages (MDMs), monocytes were isolated using CD14 microbeads (catalog no. 130-050-201; Miltenyi) and cultured in X-VIVO10 medium (Lonza) supplemented with GM-CSF 1000 U/ml and M-CSF 100 ng/ml for 6 days. Monocytes were seeded at a cell count of 50,000 cells per well in a 96 well plate. After 6 days medium was replaced with X-VIVO10 w/o Cytokines. After 2 days Macrophages were treated with Compound 22 and/or its N-glucuronide metabolite o/n and next day infected with Yu-2 virus for 6 hrs, washed with PBS and cultured in medium containing the compounds for 12 days. Supernatant for p24 Elisa was collected 2 times a week. Cells were treated with 0.01 μM up to 30 μM and p24 antigen levels were monitored in culture supernatant over a 12 day period. Cell culture supernatant HIV p24 titration was performed by ELISA with Ingen Innotest kit (Ingen Ref 80564) according to the manufacturer's instructions."}, "[1]": {"tested_on": "lymphocyte populations (CD45+; CD4+ and CD8+)", "assay": "Lymphocyte populations in engrafted humanized mice treated for 30 days", "type": "in vivo", "conditions": "20 mg/kg or 40 mg/kg for one month, compared to controls without treatment", "quoted_text": "C) Engrafted NSG humanized mice were treated by oral gavage with Compound 22 at either 20 mg or 40 mg/kg once a day for 30 days and indicated lymphocyte populations (CD45+; CD4+ and CD8+) were monitored by FACS analysis.\nNOD.scid.IL2R−/− (NSG) mice were bred and maintained in individual ventilated cages and were fed autoclaved food and water.\nBriefly, newborn (<5 days old) NSG mice received sub-lethal (1Gy) total body irradiation with a Cs source, and then received 2×105 transduced or untransduced CD34+ human HSCs using a 50 μl Hamilton syringe via the intrahepatic (i.h.) route. All manipulations of NSG-HIS mice were performed under laminar flow. […] Mice were monitored three times a week for symptoms or signs of adverse events, according to a standard score sheet.\nCell suspensions were labeled with anti-human monoclonal antibodies (mAb) targeting the following cell-surface markers: CD45-FITC, CD3-PE, CD4-Pe Cy7, CD8-BV421 and CD19-APC (all from Biolegend). Washing and reagent dilutions were done with FACS buffer (PBS containing 2% fetal calf serum and 0.05% sodium azide (NaN3). All acquisitions were performed on a Cyan ADP (Beckman Coulter) flow cytometer. Data were analyzed with FlowJo software (Ashland, Oreg.). Cellular debris and dead cells were excluded by their light-scattering characteristics."}, "HIV-1 genome (YU2)": {"tested_on": "HIV-1 genome (YU2)", "assay": "Deep sequencing of virus from treated infected primary macrophages and after amplification in PBMCs", "type": "cell-based", "conditions": "deep sequencing across HIV-1 genome, treated vs untreated samples", "text": "To test for emergence and/or selection of mutations associated with Compound 22 treatment, we applied a deep sequencing approach for sensitive detection of low-frequency viral variants across the entire HIV-1 genome. Viruses derived from treated and untreated infected primary macrophages of 4 different donors were sequenced and reads not aligning to human genome were aligned to YU2 sequence using gsnap, as detailed in Wu et al. (Fast and SNP-tolerant detection of complex variants and splicing in short reads. Bioinformatics 26, 873-881 (2010)).\nTo ascertain that amplification of viruses from treated samples will not mutate when amplified in PBMCs, they were sequenced following amplification with or without drug pressure."}, "HIV RNA splicing": {"tested_on": "HIV RNA splicing", "assay": "Sequence capture and 454 pyrosequencing of HIV RNA in infected PBMCs", "type": "cell-based, HIV-1", "experimental": "To test whether Compound 22 influences the splicing of HIV RNA in infected cells, an array-based sequence capture was performed using a customized library probes targeting HIV sequences to get rid of cellular RNA. The probes were used to capture cDNAs prepared from infected treated and untreated PBMCs. After double capture, libraries were prepared and sequenced using 454 pyrosequencing (according to GS junior method manual). The average size of the reads around 400 bp allowed unambiguous assembly of viral genome from untreated sample (after 3 and 6 days of infection) using reads that were not mapped to human genome (hg19). All sequencing data were analysed using gsnap, as detailed in Wu et al. (Fast and SNP-tolerant detection of complex variants and splicing in short reads. Bioinformatics 26, 873-881 (2010))."}},
  "note": "“Also recorded” adds a separate entry of the source.",
  "data": [
    {"smiles": "FC(F)(F)Oc1ccc(Nc2ccc3cccc(Cl)c3n2)cc1", "note": "[Compound 22, 8-chloro-N-(4-(trifluoromethoxy)phenyl)quinolin-2-amine]", "values": [
      {"measurement": "inhibition of HIV-1 replication (p24 antigen)", "setting": "HIV-1 strain Ada-MR5", "result": "dose dependent inhibition"},
      {"measurement": "inhibition at 0.1 µM", "setting": "HIV-1 strain YU2", "result": "≤ 90", "unit": "%"},
      {"measurement": "engraftment values of CD45+ cells and ratio of CD8+/CD4+", "setting": "[1]", "result": "neither alters engraftment values of CD45+ cells nor the ratio of CD8+/CD4+"},
      {"measurement": "selection of specific viral mutations", "setting": "HIV-1 genome (YU2)", "result": "does not select for specific mutations; also recorded: unlikely to select for specific viral mutations"},
      {"measurement": "selection of specific viral mutations", "setting": "HIV-1 genome (YU2); listed as compound 22", "result": "do not select for HIV specific mutations"},
      {"measurement": "effect on spliced HIV RNA", "setting": "HIV RNA splicing", "result": "favours spliced HIV RNA"},
      {"measurement": "coverage of viral genome (number of reads)", "setting": "HIV RNA splicing; 3 days post infection", "result": 4149, "unit": "reads"},
      {"measurement": "reads corresponding to splice junctions", "setting": "HIV RNA splicing; 3 days post-infection", "result": 17.4, "unit": "%"},
      {"measurement": "number of reads", "setting": "HIV RNA splicing; 6 days post-infection", "result": "20 585"},
      {"measurement": "reads corresponding to splice junctions", "setting": "HIV RNA splicing; 6 days post-infection", "result": 13.3, "unit": "%"}
    ]}
  ]
}
